Data: patent US20210115104A1, “AMYLIN ANALOGUES” (Zealand Pharma A/S, priority 2015, published 2021)
*1 amine or outer side, *2 acyl side, *3 side chain or, on linkers, in order; H or OH if unused. Where a SMILES comes first, the peptide text is derived from it. Bridges are numbered along the chain shown (N, C = ends). [ ]: non-standard residue; d: D form. The star is where a group is joined. C20 diacid = O=C(O)CCCCCCCCCCCCCCCCCCC(=O)*; γGlu = O=C(O)[C@H](CCC(=O)[*:2])N[*:1]; Hyp = O=C(O)[C@@H]1C[C@@H](O)CN1; NMeI = CC[C@H](C)[C@H](NC)C(=O)O; Sar = CNCC(=O)O

Columns and labels:
[1] = Assessment of chemical stability (RP-HPLC normalized purity); type: physicochemical; settings: 7 days, 40° C., Table 1; for Normalized purity after 7 days, 40° C., pH 4: pH 4, 0.2 mg/ml; for Normalized purity after 7 days, 40° C., pH 6: pH 6, 0.2 mg/ml; for Normalized purity after 7 days, 40° C., pH 7.5: pH 7.5, 0.2 mg/ml; for Normalized purity after 7 days, 40° C., pH 9: pH 9, 0.2 mg/ml
Procedure, shortened: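 Peptides at 0.2 mg/ml in water adjusted to pH 4, 6, 7.5 or 9, incubated at 40° C for 7 days. Main-peak area-% by RP-HPLC (C8 ammonium formate or C18 TFA gradient, UV 220 nm), normalized to T=0 as 100.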

[2] = Assessment of physical stability (Thioflavin T fibrillation); type: physicochemical; set-up: key: FND = fibrillation not detected; FD = fibrillation detected; settings: 1 mg/ml, 40° C., ThT; for Fibrillation pH 4.0 (Ac): 50 mM acetate buffer pH 4.0, 96 hours; for Fibrillation pH 7.0 (His): 50 mM histidine buffer pH 7.0, 96 hours; for Fibrillation pH 7.0 (Phos.): 50 mM phosphate buffer pH 7.0, 96 hours
Procedure, shortened: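 1 mg/ml peptide with 40 μM ThT in 50 mM phosphate pH 7.0, 50 mM histidine pH 7.0 or 50 mM acetate pH 4.0, in triplicate. Fluorescence read every 10 min after 300 s agitation over 96 h at 40 °C. Lag-time (h) is the intersection of linear fits to stable and growth phases.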

[3] = target: T1, human calcitonin receptor (hCTR2) (Homo sapiens, UniProt P30988); experiment: hCTR2 cAMP assay (AlphaScreen) in COS7 cells; type: cell-based; settings: cAMP induction, COS7 cells expressing hCTR2; Table 1; read-out: hCTR2 EC50
T1 construct: expressed in transfected cells
T1 sequence (P30988 25-474): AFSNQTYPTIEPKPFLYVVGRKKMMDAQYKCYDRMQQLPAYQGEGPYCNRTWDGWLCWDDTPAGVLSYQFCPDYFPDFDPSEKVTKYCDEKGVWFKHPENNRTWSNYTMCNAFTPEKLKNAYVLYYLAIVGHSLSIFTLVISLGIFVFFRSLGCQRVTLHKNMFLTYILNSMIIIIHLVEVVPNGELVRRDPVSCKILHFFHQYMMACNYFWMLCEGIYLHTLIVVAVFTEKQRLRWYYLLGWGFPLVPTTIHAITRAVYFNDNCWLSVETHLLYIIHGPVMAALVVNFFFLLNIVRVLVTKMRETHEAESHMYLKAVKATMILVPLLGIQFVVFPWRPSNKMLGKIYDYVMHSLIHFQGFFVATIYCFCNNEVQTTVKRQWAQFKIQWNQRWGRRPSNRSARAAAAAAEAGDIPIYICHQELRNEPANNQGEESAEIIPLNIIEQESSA
Procedure, shortened: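 Stable hCTR2 clone in RAMP-naïve COS7 cells stimulated 15 min at 37 °C with increasing peptide concentrations in Tyrode buffer pH 7.4 containing IBMX and 0.1% casein. cAMP in lysates measured by AlphaScreen; EC50 from 4-parameter logistic fit.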

[4] = target: T2, human amylin receptor 3 (hAMYR3), hCTR2 co-expressed with hRAMP3 (Homo sapiens, UniProt O60896+P30988); experiment: hAMYR3 cAMP assay (AlphaScreen) in COS7 cells; type: cell-based; settings: cAMP induction, COS7 cells expressing hAMYR3; Table 1; read-out: hAMYR3 EC50
T2 construct: expressed in transfected cells
T2 sequence (P30988 25-474): T1 sequence (P30988 25-474)
T2 sequence (O60896 24-148 partner): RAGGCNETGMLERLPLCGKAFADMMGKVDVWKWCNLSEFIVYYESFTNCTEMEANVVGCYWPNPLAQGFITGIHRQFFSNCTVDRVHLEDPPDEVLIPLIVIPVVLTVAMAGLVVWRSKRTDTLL
Procedure, shortened: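 Stable COS7 clone co-expressing hCTR2 and hRAMP3 was exposed to increasing peptide concentrations in Tyrode buffer (pH 7.4) with 100 µM IBMX and 0.1% casein for 15 min at 37 °C. Lysate cAMP was measured by AlphaScreen; EC50 came from 4-parameter logistic fitting.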

SMILES	Normalized purity after 7 days, 40° C., pH 4 [1]	Normalized purity after 7 days, 40° C., pH 6 [1]	Normalized purity after 7 days, 40° C., pH 7.5 [1]	Normalized purity after 7 days, 40° C., pH 9 [1]	Fibrillation pH 4.0 (Ac) [2]	Fibrillation pH 7.0 (His) [2]	Fibrillation pH 7.0 (Phos.) [2]	EC50 [3]	EC50 [4]
CC[C@H](C)[C@@H](C(=O)N[C@@H](CC(C)C)C(=O)N[C@@H](CO)C(=O)N[C@@H](CO)C(=O)N[C@H](C(=O)N[C@@H](CCC(=O)O)C(=O)N[C@H](C(=O)NCC(=O)N[C@@H](CO)C(=O)N[C@@H](CC(N)=O)C(=O)N[C@H](C(=O)N1C[C@H](O)C[C@H]1C(N)=O)[C@@H](C)O)C(C)C)[C@@H](C)O)N(C)C(=O)[C@H](C)NC(=O)CN(C)C(=O)[C@H](Cc1ccccc1)NC(=O)[C@H](CO)NC(=O)[C@H](CO)NC(=O)[C@H](CCCNC(=N)N)NC(=O)[C@H](CCC(N)=O)NC(=O)[C@H](CC(C)C)NC(=O)[C@H](Cc1ccccc1)NC(=O)[C@H](Cc1c[nH]cn1)NC(=O)[C@H](C)NC(=O)[C@H](CC(C)C)NC(=O)[C@H](CCCNC(=N)N)NC(=O)[C@H](CCC(=O)O)NC(=O)[C@@H](NC(=O)[C@H](C)NC(=O)[C@@H]1CSSC[C@H](NC(=O)[C@H](CCCNC(=N)N)NC(=O)CC[C@H](NC(=O)CCCCCCCCCCCCCCCCCCC(=O)O)C(=O)O)C(=O)N[C@@H](CC(N)=O)C(=O)N[C@@H]([C@@H](C)O)C(=O)N[C@@H](C)C(=O)N[C@@H]([C@@H](C)O)C(=O)N1)[C@@H](C)O [Compound 56, [19CD]-isoGlu-R-C( )-NTAT-C( )-ATERLAHFLQRSSF-Gly(Me)-A-Ile(Me)-LSSTEVGSNT-Hyp-NH2] ({C20 diacid-γGlu}-RCNTATCATERLAHFLQRSSF[Sar]A[NMeI]LSSTEVGSNT[Hyp]-NH2; disulfide 2-7)	A (A = >90%)	A (A = >90%)	A (A = >90%)	B (B = 70-90%)	FND	FND	FND	0.06 nM	0.08 nM
CC[C@H](C)[C@@H](C(=O)N[C@@H](CC(C)C)C(=O)N[C@@H](CO)C(=O)N[C@@H](CO)C(=O)N[C@H](C(=O)N[C@@H](CC(=O)O)C(=O)N[C@H](C(=O)NCC(=O)N[C@@H](CO)C(=O)N[C@@H](CC(N)=O)C(=O)N[C@H](C(=O)N1C[C@H](O)C[C@H]1C(N)=O)[C@@H](C)O)C(C)C)[C@@H](C)O)N(C)C(=O)[C@H](C)NC(=O)CN(C)C(=O)[C@H](Cc1ccccc1)NC(=O)[C@H](CO)NC(=O)[C@H](CO)NC(=O)[C@H](CCCNC(=N)N)NC(=O)[C@H](CCC(N)=O)NC(=O)[C@H](CC(C)C)NC(=O)[C@H](Cc1ccccc1)NC(=O)[C@H](Cc1c[nH]cn1)NC(=O)[C@H](C)NC(=O)[C@H](CC(C)C)NC(=O)[C@H](CCCNC(=N)N)NC(=O)[C@H](CC(=O)O)NC(=O)[C@@H](NC(=O)[C@H](C)NC(=O)[C@@H]1CSSC[C@H](NC(=O)[C@H](CCCNC(=N)N)NC(=O)CC[C@H](NC(=O)CCCCCCCCCCCCCCCCCCC(=O)O)C(=O)O)C(=O)N2CCC[C@H]2C(=O)N[C@@H]([C@@H](C)O)C(=O)N[C@@H](C)C(=O)N[C@@H]([C@@H](C)O)C(=O)N1)[C@@H](C)O [Compound 59, [19CD]-isoGlu-R-C( )-PTAT-C( )-ATDRLAHFLQRSSF-Gly(Me)-A-Ile(Me)-LSSTDVGSNT-Hyp-NH2] ({C20 diacid-γGlu}-RCPTATCATDRLAHFLQRSSF[Sar]A[NMeI]LSSTDVGSNT[Hyp]-NH2; disulfide 2-7)	A (A = >90%)	B (B = 70-90%)	C (C = <70%)	B (B = 70-90%)	FND	FD	FD	0.03 nM	0.11 nM
CC[C@H](C)[C@@H](C(=O)N[C@@H](CC(C)C)C(=O)N[C@@H](CO)C(=O)N[C@@H](CO)C(=O)N[C@H](C(=O)N[C@@H](CCC(=O)O)C(=O)N[C@H](C(=O)NCC(=O)N[C@@H](CO)C(=O)N[C@@H](CC(=O)O)C(=O)N[C@H](C(=O)N1C[C@H](O)C[C@H]1C(N)=O)[C@@H](C)O)C(C)C)[C@@H](C)O)N(C)C(=O)[C@H](C)NC(=O)CN(C)C(=O)[C@H](Cc1ccccc1)NC(=O)[C@H](CO)NC(=O)[C@H](CO)NC(=O)[C@H](CCCNC(=N)N)NC(=O)[C@H](CCC(N)=O)NC(=O)[C@H](CC(C)C)NC(=O)[C@H](Cc1ccccc1)NC(=O)[C@H](Cc1c[nH]cn1)NC(=O)[C@H](C)NC(=O)[C@H](CC(C)C)NC(=O)[C@H](CCCNC(=N)N)NC(=O)[C@H](CCC(=O)O)NC(=O)[C@@H](NC(=O)[C@H](C)NC(=O)[C@@H]1CSSC[C@H](NC(=O)[C@H](CCCNC(=N)N)NC(=O)CC[C@H](NC(=O)CCCCCCCCCCCCCCCCCCC(=O)O)C(=O)O)C(=O)N[C@@H](CC(N)=O)C(=O)N[C@@H]([C@@H](C)O)C(=O)N[C@@H](C)C(=O)N[C@@H]([C@@H](C)O)C(=O)N1)[C@@H](C)O [Compound 60, [19CD]-isoGlu-R-C( )-NTAT-C( )-ATERLAHFLQRSSF-Gly(Me)-A-Ile(Me)-LSSTEVGSDT-Hyp-NH2] ({C20 diacid-γGlu}-RCNTATCATERLAHFLQRSSF[Sar]A[NMeI]LSSTEVGSDT[Hyp]-NH2; disulfide 2-7)	A (A = >90%)	A (A = >90%)	A (A = >90%)	B (B = 70-90%)	FND	FND	FND	0.08 nM	0.09 nM
CC[C@H](C)[C@@H](C(=O)N[C@@H](CC(C)C)C(=O)N[C@@H](CO)C(=O)N[C@@H](CO)C(=O)N[C@H](C(=O)N[C@@H](CCC(=O)O)C(=O)N[C@H](C(=O)NCC(=O)N[C@@H](CO)C(=O)NCC(=O)N[C@H](C(=O)N1C[C@H](O)C[C@H]1C(N)=O)[C@@H](C)O)C(C)C)[C@@H](C)O)N(C)C(=O)[C@H](C)NC(=O)CN(C)C(=O)[C@H](Cc1ccccc1)NC(=O)[C@H](CCCNC(=N)N)NC(=O)[C@H](CCC(N)=O)NC(=O)[C@H](CC(C)C)NC(=O)[C@H](Cc1ccccc1)NC(=O)[C@H](Cc1c[nH]cn1)NC(=O)[C@H](C)NC(=O)[C@H](CC(C)C)NC(=O)[C@H](CCCNC(=N)N)NC(=O)[C@H](CCC(N)=O)NC(=O)[C@@H](NC(=O)[C@H](C)NC(=O)[C@@H]1CSSC[C@H](NC(=O)[C@H](CCCNC(=N)N)NC(=O)CC[C@H](NC(=O)CCCCCCCCCCCCCCCCCCC(=O)O)C(=O)O)C(=O)N[C@@H](CC(N)=O)C(=O)N[C@@H]([C@@H](C)O)C(=O)N[C@@H](C)C(=O)N[C@@H]([C@@H](C)O)C(=O)N1)[C@@H](C)O [Compound 79, [19CD]-isoGlu-R-C( )-NTAT-C( )-ATQRLAHFLQRF-Gly(Me)-A-Ile(Me)-LSSTEVGSGT-Hyp-NH2] ({C20 diacid-γGlu}-RCNTATCATQRLAHFLQRF[Sar]A[NMeI]LSSTEVGSGT[Hyp]-NH2; disulfide 2-7)	A (A = >90%)	A (A = >90%)	B (B = 70-90%)	B (B = 70-90%)	FND	FD	FD	0.12 nM	0.23 nM
